Experimental findings from a melting point compilation (Tetko et al.; mined from patent text by program, amines drawn as free bases though some values may be those of a salt) are described below.

The melting point is the temperature of the solid-liquid transition. In the case of `COc1ccc([C@@H]2O[C@H]2C(=O)O[C@@H]2CCCC[C@H]2c2ccccc2)cc1`, the melting point was 146 to 148 °C. The same measure for `CC(C)(C)OC(=O)COc1ccc(NC(=O)NC(=O)c2ccc(C#N)nc2)cc1`: 220 to 222 °C. The value for `COCc1ccc(Cl)c(C2(C)C(=O)N(Cc3ccc(OC)cc3OC)c3ccc(Cl)cc32)c1` (stereo not given) was 122 °C; that for `O=[N+]([O-])c1ccc(NCCc2ccccc2)c(S(=O)(=O)CCO)c1` was 95 to 95.5 °C.

On to `O=C(Nc1ccc(N2CCCC2)cc1)N(C[C@H]1CC[C@H](CN(C(=O)Nc2ccc(N3CCCC3)cc2)C2CCCCCC2)CC1)C1CCCCCC1`, for which the melting point lay in the range of 152 to 155 °C. The same measure for `CSc1ccc(C(=O)N2CC2C#N)nn1` (stereo not given): 97 to 100 °C; for `CC(C)N1C(=O)NC(c2ccc3c(c2)OCCO3)c2cc3c(cc21)OCO3` (stereo not given): 185 to 187 °C.

`CCCCSc1cc(C(=O)OC)cc(S(N)(=O)=O)c1Cc1ccccc1`: the melting point lay within 118 to 120 °C.

As for `CCc1nc2c(n1C(CC)CC)C(=O)N(C)C(C)N2c1ccc(Cl)cc1Cl` (stereo not given), the melting point was in the range of 135 to 136 °C. Consider `CN(Cc1ccc(NC(=O)C2=Cc3cc(-c4ccc5c(c4)OCO5)ccc3SCC2)cc1)C1CCOCC1`, for which the melting point lay within 193 to 194 °C.

Consider `Cc1ccc(-c2cc3c(s2)CCCC(C(=O)Nc2ccc(CN(C)C4CCOCC4)cc2)=C3)cc1`, for which the melting point was in the range of 201 to 203 °C. The same measure for `CCOC(=O)c1cc2ccc(Cl)nc2[nH]1`: 144 to 145 °C.

In the case of `c1cc(CN2CCCCC2)cc(OCCCNc2nc3ccccc3[nH]2)c1`, the melting point was 146 to 148 °C. The value for `O=C(N[C@H](CN1CCC(OC2c3ccccc3CCc3ccccc32)CC1)C(=O)O)OCc1ccccc1` was 128 to 130 °C. As to `O=C(COc1ccccc1)NC(Cc1ccccc1)C(=O)NNc1ccccc1` (stereo not given), the melting point fell in the range of 172 to 175 °C. The same measure for `CC(=O)N[C@@H]1c2cc(C#N)ccc2CC(C)(C)[C@H]1O` (relative stereo): 203 to 205 °C. In turn, `COc1cc(C(=O)c2cn(C)c(-c3cn(C)c4ccccc34)n2)cc(OC)c1OC` registered a melting point of 164 to 166 °C. The value for `CNC(=S)NCCCCc1c[nH]c(NC(=N)N)n1` was 179 to 184 °C; that for `CC(C)(C)c1nc2cc(N3CCSCC3)c([N+](=O)[O-])cc2s1` was 117 to 120 °C. The same measure for `O=c1oc2ccc(-c3ccc(F)cc3F)cc2c(=O)n1-c1ccc(F)c(F)c1`: 193 to 194 °C. The value for `CC1(C(=O)NN)C(=O)Nc2cc3[nH]c(-c4ccncc4)nc3cc21` (stereo not given) was over 300 °C; that for `CCOC(=O)N1CCC2CN(c3c(F)cc4c(=O)c(C(=O)O)cn(C5CC5)c4c3F)CC21` (stereo not given) was 191 to 192 °C. As for `Cc1oc(-c2ccccc2)nc1CCOc1ccc(C[C@@H](C(=O)O)N2CCN(S(=O)(=O)c3ccccc3[N+](=O)[O-])CC2)cc1`, the melting point is 171 to 173 °C. The same measure for `CCOCc1nc2c(N)nc3cccnc3c2n1CCCCCC(=O)N1CCOCC1`: 168 to 170 °C. The value for `CC1(C)Oc2ccc(C#N)cc2C(Oc2ccnc(O)c2)C1O` (stereo not given) was 249 to 250 °C. The compound `N#CC1CCCCn2cccc21` (stereo not given) came in with a melting point of 70 to 72 °C. The value for `CCN(CC)C(=O)n1ccc(S(=O)(=O)c2cc(Cl)cc(Cl)c2)n1` was 103 to 106 °C; that for `CC1(N2C(=O)c3ccc(CNC(=O)c4ccc(S(C)(=O)=O)cc4)cc3C2=O)CCC(=O)NC1=O` (stereo not given) was 166 to 168 °C; that for `COc1ccc(NC(=O)N(Cc2ccccn2)C2CCCCCC2)c(NC(=O)c2cc(C(C)(C)C)c(O)c(C(C)(C)C)c2)c1` was 165 to 166 °C. The value for `O=C(O)c1sc(-c2cccnc2)nc1Cl` was 238 to 251 °C; that for `COC(=O)CCSc1cc(C(C)(C)C)c(O)c(C(C)(C)C)c1` was 63.5 to 65.5 °C. Turning to `OC1(CCc2ccccc2)CCC2(CC1)OCCO2`, the melting point was 109 to 110 °C. The value for `COc1c(C)c(C)c(O)c(C)c1CN(C)CCOc1cc(C)ccc1C(C)C` was 75 to 77 °C. The same measure for `COC(=O)c1ccc2[nH]c(S)nc2n1`: 233 to 234 °C; for `COc1ccc(CN2C(=O)C(O)(c3ccncc3Cl)c3cc(Cl)ccc32)c(OC)c1` (stereo not given): 215 °C. The same measure for `COC(=O)C(CCSC)NCC(=O)Nc1cccc2c1C(=O)c1c(NC(=O)CNC(CCSC)C(=O)OC)cccc1C2=O` (stereo not given): 126 to 127 °C. `COC(=O)c1ccc(C(=O)CC(=O)c2ccccc2)cc1` came in with a melting point of 107 to 108 °C. The value for `Cn1nc(C(F)(F)F)cc1Oc1cc(C#N)cc(-n2ccc(C(F)(F)F)n2)c1` was 116 to 117 °C. The same measure for `Cc1cc(C)cc(C(=O)NC(C#N)n2cccn2)c1` (stereo not given): 180 to 183 °C. The value for `CC1(C)CCc2c(N3CCOCC3)nc3sc4c(NCCc5ccccn5)ncnc4c3c2C1` was 238 to 239 °C; that for `CCNC(=O)Nc1nc2cc(-c3cccnc3)cc(C(=O)OC)n2n1` was 211 to 213 °C; that for `O=C1c2ccsc2S(=O)(=O)CCN1CCCCN1CCN(c2ncccn2)CC1` was 161 to 163 °C.

Turning to `COc1ccccc1N1CCN(CCCn2c(=O)[nH]c3cscc3c2=O)CC1`, the melting point lay in the range of 187 to 188 °C. `Cc1ccc(S(=O)(=O)NC2CCCC2NC(=O)OC(C)(C)C)cc1` (stereo not given): the melting point fell in the range of 129 to 130 °C.

In turn, `Cc1nc(-c2ccc(OCC(C)(C)C)c(I)c2)sc1C(=O)O` yielded a melting point of 194 to 195 °C. The value for `CCCCNC(=O)Nc1ccc(OCC2CC2)cc1C(=O)NCC1CCN(C(c2ccccc2)c2ccccc2)CC1` was 190 to 192 °C. Compound `CCCCCCCCCCCCS(=O)(=O)c1cc2c(cc1S(=O)(=O)CCCCCCCCCCCC)C(=O)c1c(c(O)c3ccccc3c1O)C2=O` came in with a melting point of 173 to 175 °C. The same measure for `CCCCOc1ccc(-c2nnc(Nc3ccc(Cl)c(Cl)c3)s2)cc1`: 233 to 235 °C; for `CC(=O)Oc1ccc(C(=O)O)cc1I`: 173 to 174 °C; for `CCOC(=O)C1OC1C(=O)NC(CC(C)C)C(=O)NCCC(C)CO` (stereo not given): 92 to 95 °C. The value for `CCc1[nH]n(C2CCCC2)c2nc(-c3ccccc3OCC(=O)O)nc(=O)c1-2` was 208 to 209 °C; that for `CC(C)(C)OC(=O)c1ncn2c1[C@@H]1CCCN1C(=O)c1c-2ccc(Cl)c1Cl` was 213 to 214 °C. The same measure for `S=c1c2[nH]cnc2c2cccnc2n1-c1ccccc1`: over 300 °C; for `Cc1ccc(N2C(=O)C(O)=C(C(=O)c3ccc(C(C)C)cc3)C2c2ccc(Cn3nccn3)cc2)nn1` (stereo not given): 285 °C; for `O=C1CC(c2ccccc2OCc2ccccc2)=Nc2ccc(N3CCCC3)cc21`: 293 to 295 °C. For the compound `Brc1cc(N2CCOCC2)ccc1/C=C/c1cc(/C=C/c2ccc3cc[nH]c3c2)[nH]n1`, the melting point was in the range of 143 to 148 °C. The value for `O=C(Cc1ccc(F)cc1)c1ccc(OC(F)F)cc1` was 50 to 56 °C; that for `CCN(c1ccc(Br)cc1)c1nc(=O)c2cccnc2s1` was 166 to 167 °C. As for `O=c1c(Br)c(N2CCOCC2)oc2ccccc12`, the melting point is 145 to 146 °C. `COC(Cc1c(Br)cc(Br)c(C(N)=O)c1Br)C(=O)O` (stereo not given) returned a melting point of 138 to 139 °C. The same measure for `CCCCCCC1(CCCCCC)c2cc(Br)ccc2-c2ccc(Br)cc21`: 64 to 66 °C; for `Cc1ccc(CCc2cc3c(s2)-n2c(C)nnc2CN=C3c2ccccc2Cl)cc1`: 160 to 162 °C; for `COc1ccc2[nH]cc(/C=C/c3cc(/C=C/c4ccc(OCc5ccccn5)cc4OC)[nH]n3)c2c1`: 189 to 195 °C. `COc1cc2ncc(C#N)c(Nc3ccc(F)c(Cl)c3)c2cc1NC(=O)C=CCN(CC(C)O)CC(C)O` (stereo not given) displayed a melting point of 122 to 125 °C. In turn, `CCOc1nn(-c2ccc(C(F)(F)F)cn2)cc1CCOc1cc(CCC(=O)O)n(-c2ccccc2)n1` registered a melting point of 155 to 156 °C. The same measure for `COc1ccccc1NC(=O)Nc1ccc(CC(=O)O)cc1C`: 260 to 264 °C. The same measure for `NC(=O)[C@@H]1[C@H](Nc2c(Br)cnc3[nH]c(-c4ccccc4-n4cccn4)nc23)[C@H]2C=C[C@@H]1C2`: 120 °C; for `CCCc1ccc2c(C(=O)O)ccc(OC)c2n1`: 214 to 217 °C; for `CC(C)(C)c1cc(C=Cc2n[nH]c(=O)o2)cc(C(C)(C)C)c1O`: over 260 °C. The value for `Cc1cccc(-c2n[nH]cc2-c2ccc(F)c(-c3cn[nH]c3)c2)n1` was 110 to 112 °C; that for `Nc1c([N+](=O)[O-])cnc2sccc12` was 227 to 228 °C. On to `O=S(=O)(Cc1ccccc1)Nc1ncc(-c2ccccc2)nc1Cc1ccccc1`, for which the melting point is 207 to 208 °C. The same measure for `NS(=O)(=O)c1ccc(NC(=O)C(=O)N2CCC(Cc3ccc(F)cc3)CC2)cc1`: 201 to 203 °C; for `CC(O)(Cc1cnc(Cl)s1)c1ccc(Cl)cc1Cl` (stereo not given): 164 °C; for `CN1CC(=O)Nc2ccsc2C1=O`: 270 to 272 °C. In turn, `CC(C)(C)C1=C(C#N)C(c2cccc(C#N)c2Br)c2c[nH]nc2N1` (stereo not given) displayed a melting point of 251 °C. The value for `Cc1c(Br)ccc(F)c1N` was 49 to 50 °C; that for `Cc1ccccc1C(=O)N1CCC(=NO)c2ccc(Cl)cc21` was 166 to 168 °C.

In the case of `CCOC(=O)c1ccc(-c2ccc(O)c(-c3ccc(N(CC)CC)c(C(F)(F)F)c3)c2)cc1`, the melting point is 170 °C. The same measure for `CCC1CCCN(C(=O)C2Cc3ccccc3N2c2ccc(=O)n(C)n2)C1` (stereo not given): 150 to 154 °C; for `COc1cccc(Cl)c1-c1cc2c(c3c1C(=O)NC3=O)c1cc(O)ccc1n2CCN1CCOCC1`: 185 °C.

As to `OC(CCCl)COc1ccc(-c2ccccc2)cc1` (stereo not given), the melting point lay in the range of 123 to 124 °C. The same measure for `CC1CN(Cc2ccccc2)Cc2cc(-c3ccccc3)n(Cc3ccccc3)c21` (stereo not given): 131 °C; for `c1ccc(C(c2ccc3[nH]cnc3c2)n2ccnc2)cc1` (stereo not given): 186 °C. The same measure for `CCSc1cc(O)nc(N(C)C)n1`: 184 to 185 °C.
